# Reference: PMC9017349, “Spiropyrimidinetriones: a Class of DNA Gyrase Inhibitors with Activity against Mycobacterium tuberculosis and without Cross-Resistance to Fluoroquinolones” (Antimicrobial Agents and Chemotherapy, 2022)
# Key:
# M. tuberculosis H37Rv [1] = test: MIC against M. tuberculosis H37Rv in 7H9 medium with various supplements; format: cell-based, Mycobacterium tuberculosis; details: for MIC: Mycobacterium tuberculosis; for fold more active than zoliflodacin against M. tuberculosis: across the MIC media
# M. tuberculosis H37Rv [2] = test: microbe, parasite or virus in culture; format: cell-based; details: for MBC relative to MIC / MBC: CARA; for MIC / MBC: Mycobacterium tuberculosis, 168 h; for MIC: H37Rv, 7 days, Middlebrook 7H9 with OADC and glycerol, read-out: MIC (dose-response); for MBC: H37RV, transfer to charcoal agar, additional 7 days
# M. tuberculosis H37Rv [3] = test: microbe, parasite or virus in culture; format: cell-based; details: Mycobacterium tuberculosis, read-out: MIC90, H37Rv
# [4] = tested on: recA promoter reporter in M. tuberculosis H37Rv; format: cell-based, Mycobacterium tuberculosis
# H37Rv (RecA) = format: cell-based, Mycobacterium tuberculosis
# [5] = tested on: iniB promoter reporter in M. tuberculosis H37Rv; format: cell-based, Mycobacterium tuberculosis
# M. tuberculosis ΔcydA = format: cell-based
# Mtb = format: in vivo; details: 100 mg/kg, day 21; limit 1.57 log10 CFU
# M. tuberculosis = details: 200 mg/kg, 14 days of dosing, published study; cited from earlier work
# [6] = tested on: M. tuberculosis Erdman pFCA-LuxAB (Erdman Lux); details: BALB/c mice, 100 mg/kg p.o. daily, 12 days
# N. gonorrhoeae = format: cell-based
# [7] = H37RV, read-out: MIC, ADC/GLU/TW
# [8] = H37RV, read-out: MIC, DPPC/CAS/TX
# [9] = H37RV, read-out: MIC, DPPC/Chol/BSA/TX
# [10] = H37RV, read-out: MIC, GLU/BSA/TX
# [11] = H37RV, read-out: MIC, GLU/CAS/TX
SMILES,MIC (M. tuberculosis H37Rv [1]; [7]),MIC (M. tuberculosis H37Rv [1]; [8]),MIC (M. tuberculosis H37Rv [1]; [9]),MIC (M. tuberculosis H37Rv [1]; [10]),MIC (M. tuberculosis H37Rv [1]; [11]),other results
C[C@@H]1CN2c3c(cc4c(C5=N[C@H]6COC[C@H]6N5)noc4c3F)CC3(C(=O)NC(=O)NC3=O)[C@H]2[C@H](C)O1 [Compound 21],3.4 µM,9.4 µM,9.4 µM,6.2 µM,6.2 µM,–
C[C@@H]1CN2c3c(cc4c(-n5ncnc5NCCO)noc4c3F)CC3(C(=O)NC(=O)NC3=O)[C@H]2[C@H](C)O1 [Compound 14],0.24 µM,1.6 µM,1.2 µM,1.2 µM,0.6 µM,fold more active than zoliflodacin against M. tuberculosis (M. tuberculosis H37Rv [1]; H37Rv): 16 fold
CC1CN2c3c(cc4c(N5CC(c6ccccn6)OC5=O)noc4c3F)CC3(C(=O)NC(=O)NC3=O)C2C(C)O1 (stereo not drawn) [Compound 12],> 50 µM,> 50 µM,> 50 µM,> 50 µM,> 50 µM,–
"NNC(=O)c1ccncc1 [Isoniazid, isoniazid]",–,–,–,–,–,MBC relative to MIC (M. tuberculosis H37Rv [2]): less than 4 fold; MIC (M. tuberculosis H37Rv [2]): 4.61 µM; MBC (M. tuberculosis H37Rv [2]): 3.9 µM; MIC90 (M. tuberculosis H37Rv [3]): 3.95 µM; bioluminescence response in PrecA-LUX assay ([4]; over 7 days): did not elicit significant luminescence; PrecA-LUX MIC (H37Rv (RecA)): ~ 7 μM; bioluminescence response in PiniB-LUX assay [5]: strong signal
"CO[C@H]1/C=C/O[C@@]2(C)Oc3c(C)c(O)c4c(O)c(c(/C=N/N5CCN(C)CC5)c(O)c4c3C2=O)NC(=O)/C(C)=C\C=C\[C@H](C)[C@H](O)[C@@H](C)[C@@H](O)[C@@H](C)[C@H](OC(C)=O)[C@@H]1C [Rif, rifampicin]",–,–,–,–,–,"MIC90 (M. tuberculosis H37Rv [3]): 0.002 µM; MIC90, ΔcydA (M. tuberculosis ΔcydA): 0.0046 µM"
CC1CN2c3c(cc4c(N5C(=O)OC6COCCC65)noc4c3F)CC3(C(=O)NC(=O)NC3=O)C2C(C)O1 (stereo not drawn) [Compound 10],3.9 µM,12 µM,12 µM,12 µM,6.2 µM,–
CC1CN2c3c(cc4c(N5C(=O)OCC5CCCO)noc4c3Cl)CC3(C(=O)NC(=O)NC3=O)C2C(C)O1 (stereo not drawn) [Compound 4],4.8 µM,12 µM,12 µM,12 µM,9.4 µM,–
CC(=O)NCC1CN(c2cc3c(c(F)c2F)N2C[C@H](C)O[C@H](C)[C@H]2C2(C3)C(=O)NC(=O)NC2=O)C(=O)O1 (stereo partly drawn) [Compound 24],> 50 µM,> 50 µM,> 50 µM,> 50 µM,> 50 µM,activity in the M. tuberculosis MIC assays (M. tuberculosis H37Rv [1]; any of the MIC media): did not show activity at the highest concentration tested
CC1CN2c3c(cc4c(N5C(=O)OCC5CCO)noc4c3F)CC3(C(=O)NC(=O)NC3=O)C2C(C)O1 (stereo not drawn) [Compound 1],3.9 µM,6.2 µM,9.4 µM,9.4 µM,4.7 µM,–
C[C@H]1COc2c(N3CCN(C)CC3)c(F)cc3c(=O)c(C(=O)O)cn1c23 [Levofloxacin],–,–,–,–,–,MIC90 (M. tuberculosis H37Rv [3]): 0.49 µM
"COc1c(N2C[C@@H]3CCCN[C@@H]3C2)c(F)cc2c(=O)c(C(=O)O)cn(C3CC3)c12 [Moxifloxacin, moxifloxacin]",–,–,–,–,–,"MIC (M. tuberculosis H37Rv [1]; H37Rv, 7H9 medium with DPPC/Casitone/tyloxapol, read-out: MIC, DPPC/CAS/TX): 0.2 µM; MIC (M. tuberculosis H37Rv [1]; H37Rv, 7H9 medium with albumin-dextrose catalase/glucose/Tween, read-out: MIC, ADC/GLU/TW): 0.17 µM; MIC (M. tuberculosis H37Rv [1]; H37Rv, 7H9 medium with glucose/BSA/tyloxapol, read-out: MIC, GLU/BSA/TX): 0.3 µM; MIC (M. tuberculosis H37Rv [2]): 0.38 µM; MBC (M. tuberculosis H37Rv [2]): 0.78 µM; MIC90 (M. tuberculosis H37Rv [3]): 0.24 µM; PrecA-LUX signal higher than for 22 ([4]; at 0.5× MIC): ~6 fold; PrecA-LUX MIC (H37Rv (RecA)): ~ 0.19 μM; n, number of mice showing viable bacteria above the lower limit of detection/total number of animals tested (Mtb): 3/6; CFU reduction (M. tuberculosis): 3.3 log10 CFU"
C[C@@H]1CN2c3c(cc4c(N5CCN(C)C5=O)noc4c3F)CC3(C(=O)NC(=O)NC3=O)[C@H]2[C@H](C)O1 [Compound 23],4.3 µM,37 µM,12 µM,19 µM,6.2 µM,–
COc1ncnn1-c1noc2c(F)c3c(cc12)CC1(C(=O)NC(=O)NC1=O)[C@H]1[C@H](C)O[C@H](C)CN31 [Compound 16],2 µM,12 µM,9.4 µM,12 µM,9.4 µM,–
C[C@@H]1CN2c3c(cc4c(C5=N[C@H](C)[C@@H](C)N5)noc4c3F)CC3(C(=O)NC(=O)NC3=O)[C@H]2[C@H](C)O1 [Compound 20],5.5 µM,6.2 µM,6.2 µM,4.7 µM,3.1 µM,–
C[C@@H]1CN2c3c(cc4c(-n5ncnc5N5CCOC[C@H]5C)noc4c3F)CC3(C(=O)NC(=O)NC3=O)[C@H]2[C@H](C)O1 [Compound 19],16 µM,> 50 µM,> 50 µM,> 50 µM,> 50 µM,–
CC1CN2c3c(cc4c(N5C(=O)OCC5CO)noc4c3F)CC3(C(=O)NC(=O)NC3=O)C2C(C)O1 (stereo not drawn) [Compound 2],2 µM,6.2 µM,4.7 µM,6.2 µM,3.1 µM,–

SMILES,MIC (M. tuberculosis H37Rv [1]; [7]),MIC (M. tuberculosis H37Rv [1]; [8]),MIC (M. tuberculosis H37Rv [1]; [9]),MIC (M. tuberculosis H37Rv [1]; [10]),MIC (M. tuberculosis H37Rv [1]; [11]),other results
CC1CN2c3c(cc4c(N5C(=O)OC6COCC65)noc4c3F)CC3(C(=O)NC(=O)NC3=O)C2C(C)O1 (stereo not drawn) [Compound 6],0.98 µM,4.7 µM,2.3 µM,3.1 µM,1.6 µM,–
COCC1[C@@H](C)OC(=O)N1c1noc2c(F)c3c(cc12)CC1(C(=O)NC(=O)NC1=O)[C@H]1[C@H](C)O[C@H](C)CN31 (stereo partly drawn) [Compound 11],31 µM,> 50 µM,> 50 µM,> 50 µM,> 50 µM,–
C[C@@H]1CN2c3c(cc4c(-n5ncnc5NCCN(C)C)noc4c3F)CC3(C(=O)NC(=O)NC3=O)[C@H]2[C@H](C)O1 [Compound 15],2 µM,1.6 µM,3.1 µM,1.6 µM,2.3 µM,–
"CC(=O)NC[C@H]1CN(c2ccc(N3CCOCC3)c(F)c2)C(=O)O1 [Linezolid, linezolid]",–,–,–,–,–,MBC relative to MIC (M. tuberculosis H37Rv [2]): greater than 4 fold; MIC (M. tuberculosis H37Rv [2]): 1.51 µM; MBC (M. tuberculosis H37Rv [2]): 7.8 µM
CNc1ncnn1-c1noc2c(F)c3c(cc12)CC1(C(=O)NC(=O)NC1=O)[C@H]1[C@H](C)O[C@H](C)CN31 [Compound 17],0.9 µM,6.2 µM,6.2 µM,9.4 µM,3.1 µM,–
C[C@@H]1CN2c3c(cc4c(-n5cncn5)noc4c3Cl)CC3(C(=O)NC(=O)NC3=O)[C@H]2[C@H](C)O1 [Compound 18],0.49 µM,3.1 µM,1.6 µM,1.6 µM,0.78 µM,–
CC(C)=CCC/C(C)=C/CNCCNC1C2CC3CC(C2)CC1C3 (stereo not drawn) [SQ109],–,–,–,–,–,MIC90 (M. tuberculosis H37Rv [3]): 0.49 µM
CC1CN2c3c(cc4c(N5C(=O)OC(C)C5C)noc4c3F)CC3(C(=O)NC(=O)NC3=O)C2C(C)O1 (stereo not drawn) [Compound 7],3.9 µM,37 µM,19 µM,25 µM,12 µM,–
CC1CN2c3c(cc4c(N5C(=O)OC6CCOCC65)noc4c3F)CC3(C(=O)NC(=O)NC3=O)C2C(C)O1 (stereo not drawn) [Compound 13],1.9 µM,12 µM,4.7 µM,6.2 µM,4.7 µM,–
COCC1COC(=O)N1c1noc2c(F)c3c(cc12)CC1(C(=O)NC(=O)NC1=O)C1C(C)OC(C)CN31 (stereo not drawn) [Compound 8],7.8 µM,25 µM,12 µM,25 µM,19 µM,–
C[C@@H]1CN(c2noc3c(F)c4c(cc23)CC2(C(=O)NC(=O)NC2=O)[C@H]2[C@H](C)O[C@H](C)CN42)C(=O)O1 [Compound 5],2 µM,12 µM,6.2 µM,9.4 µM,4.7 µM,fold more active than zoliflodacin against M. tuberculosis (M. tuberculosis H37Rv [1]; H37Rv): about 2 fold
"CC[C@@H](CO)NCCN[C@@H](CC)CO [Ethambutol, ethambutol, reference compound]",–,–,–,–,–,"n, number of mice showing viable bacteria above the lower limit of detection/total number of animals tested (Mtb): 5/5; CFU decline in lung burdens relative to the untreated controls [6]: 2.6 log10 CFU"
"C[C@@H]1CN2c3c(cc4c(N5C(=O)OC[C@@H]5C)noc4c3F)CC3(C(=O)NC(=O)NC3=O)[C@H]2[C@H](C)O1 [Zoliflodacin, zoliflodacin, reference compound]",6.4 µM,19 µM,19 µM,12 µM,19 µM,MIC against N. gonorrhoeae lower than that for 22 (N. gonorrhoeae): 8 fold
CC1CN2c3c(cc4c(N5C(=O)OCC5c5ncnn5C)noc4c3F)CC3(C(=O)NC(=O)NC3=O)C2C(C)O1 (stereo not drawn) [Compound 9],16 µM,> 50 µM,> 50 µM,> 50 µM,37 µM,–
CC1CN2c3c(cc4c(N5CC(CO)OC5=O)noc4c3Cl)CC3(C(=O)NC(=O)NC3=O)C2C(C)O1 (stereo not drawn) [Compound 3],2 µM,6.2 µM,4.7 µM,4.7 µM,2.3 µM,–
